From US20240270692A1, “S(+) FORM OF 4-(2,4-DIFLUOROPHENYL)-2-(1H-INDOL-3-YL)-4-OXO-BUTANOIC ACID” (TOHOKU UNIVERSITY, priority 2021, published 2024)

Experiment: Physical properties: coloration and degradation of dissolution solutions
Type: physicochemical

O=C(C[C@H](C(=O)O)c1c[nH]c2ccccc12)c1ccc(F)cc1F [S(+) form of MA5, 4-(2,4-difluorophenyl)-2-(1H-indol-3-yl)-4-oxo-butanoic acid]
degradation product on silica gel TLC plate (alcohol-chloroform dissolution solution): a large amount of a degradation product was generated
degradation product on silica gel TLC plate (dissolution solution developed immediately): no degradation product was generated
degradation product on silica gel TLC plate (dissolution solution spotted and developed after some time): a degradation product appeared
coloration of dissolution solution (ethanol, isopropanol, acetone, acetonitrile, ethyl acetate, 50% acetonitrile aqueous solution, or 0.1% formic acid-containing acetonitrile solution, refrigerated for about a week): does not become colored
degradation product on silica gel TLC plate (ethyl acetate dissolution solution): not easily generated
stability under a light, acid, or alkali condition (light, acid, or alkali condition): undergoes coloration and degradation
coloration of dissolution solution (methanol, dichloromethane, chloroform, 50% methanol aqueous solution, or 0.1% formic acid-containing methanol solution, refrigerated for about a week): colored pale yellow
coloration of dissolution solution (mixed solvent of an alcohol (methanol, ethanol, or isopropanol) and chloroform, the day after preparation): colored yellow
